Experimental data as given in patent US9848599B2, “Co-crystals of 3-iodopropynyl butylcarbamate” (priority 2012, dated 2017).

Assay: Thermal stability compared with IPBC
Assay type: physicochemical

Molecule | thermal stability compared with IPBC
Co-crystal containing 3-iodopropynyl butylcarbamate and 4-[2-(4-pyridinyl)ethyl]pyridine in a 2:1 Molar Ratio [Co-Crystal 1] | higher thermal stability
Co-Crystal Containing 3-iodopropynyl butylcarbamate and N,N′-bis(4-pyridylcarbonyl)-1,6-hexanediamine in a 2:1 Molar Ratio [Co-Crystal 5] | higher thermal stability
CCCCNC(=O)OCC#CI.CCCCNC(=O)OCC#CI.c1cc(-c2ccncc2)ccn1 [Co-Crystal 2, Co-Crystal Containing 3-iodopropynyl butylcarbamate and 4,4′-bipyridine in a 2:1 Molar Ratio] | higher thermal stability
